The values below come from US10611740B2, “Aryl dihydro-2H-benzo[b][1,4]oxazine sulfonamide and related compounds for use as agonists of RORγ and the treatment of disease” (Lycera Corporation, priority 2015, dated 2020).

One test concerns the target T1, Gal4-RORγ-LBD (Homo sapiens, UniProt P51449).
T1 construct: expressed in transfected cells; host or cells: HEK-293 cells (pcDNA3.1neo plasmid)
T1 sequence (P51449 269-508 limits assumed): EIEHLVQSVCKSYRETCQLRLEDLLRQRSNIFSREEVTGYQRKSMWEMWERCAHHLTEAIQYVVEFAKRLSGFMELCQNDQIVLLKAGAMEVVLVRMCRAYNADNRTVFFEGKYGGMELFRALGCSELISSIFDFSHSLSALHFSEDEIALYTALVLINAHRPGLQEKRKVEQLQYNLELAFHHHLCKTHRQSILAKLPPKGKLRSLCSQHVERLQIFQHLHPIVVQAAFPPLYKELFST
Put plainly: Gal4-RORγ Luciferase Reporter Assay in HEK-293T Cells. Particulars: HEK-293 cells. Format: cell-based. In a few lines: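 HEK-293 cells were transiently co-transfected with Gal4-RORγ-LBD and pGL4.31 Gal4-luciferase, with ursolic acid added at 2 μM final. Compounds were incubated overnight at 37° C. in 0.2% DMSO and luminescence read with One-Glo. Max Response is the upper plateau of a 4-parameter logistic fit, with signal lacking ursolic acid or compound set to 100.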

The target in another test is T2, RORγ-LBD (Homo sapiens, UniProt P51449).
T2 construct: made in house; host or cells: SF9 cells (baculovirus)
T2 sequence (P51449 269-508 limits assumed): T1 sequence (P51449 269-508 limits assumed)
Put plainly: RORγ-Ligand Binding Domain (LBD) TR-FRET Assay.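 For TR-FRET Assay Max Response: 665/615 nm ratio relative to signal without ursolic acid or compound set at 100.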 Type of test: biochemical. In a few lines: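 Compounds, diluted in DMSO and then in assay buffer (1% DMSO final), were combined with His-tagged RORγ-LBD lysate at roughly 3 nM final and a 200 nM biotinylated SRC1 LXXLL peptide. Ursolic acid was included at 2 μM final. Coactivator recruitment was detected by TR-FRET.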
Background: Time-resolved FRET reads energy transfer from a long-lived donor to a nearby acceptor.

Setting [1] is: luciferase reporter, with 2 μM ursolic acid.

The term EC50 denotes the midpoint of the concentration-response curve. Turning to `CC(C)(CO)C(=O)NC[C@H]1CN(S(=O)(=O)c2cccc(C(F)(F)F)c2)c2cc(-c3cc(F)ccc3F)ccc2O1` [Compound 30AU, (S)-N-((6-(2,5-difluorophenyl)-4-((3-(trifluoromethyl)phenyl)-sulfonyl)-3,4-dihydro-2H-benzo[b][1,4]oxazin-2-yl)methyl)-3-hydroxy-2,2-dimethylpropanamide], at Gal4-RORγ-LBD (setting [1]), the EC50 was < 500 nM and the “Gal4-RORγ Assay Max Response” value is on record as “** (The symbol “**” indicates a value in the range of greater than 90 to 150)”. Moreover, at RORγ-LBD, the EC50 is < 500 nM and the “TR-FRET Assay Max Response” value was “**** (The symbol “****” indicates a value greater than 200)”.
In the case of `COc1ccc(Cl)cc1-c1ccc2c(c1)N(S(=O)(=O)c1cccc(C(F)(F)F)c1)C[C@H](CCC(=O)O)O2` [Compound 2S, (S)-3-(6-(5-chloro-2-methoxyphenyl)-4-((3-(trifluoromethyl)phenyl)-sulfonyl)-3,4-dihydro-2H-benzo[b][1,4]oxazin-2-yl)propanoic acid], at Gal4-RORγ-LBD (setting [1]), the EC50 was < 500 nM and the “Gal4-RORγ Assay Max Response” value is on record as “** (The symbol “**” indicates a value in the range of greater than 90 to 150)”. Also, at RORγ-LBD, the EC50 is < 500 nM and the “TR-FRET Assay Max Response” value is listed as “**** (The symbol “****” indicates a value greater than 200)”.
Regarding `CC(=O)NC[C@H]1CN(S(=O)(=O)c2cccc(C(F)(F)F)c2)c2cc(-c3cc(F)ccc3F)ccc2O1` [Compound 30BD, (S)-N-((6-(2,5-difluorophenyl)-4-((3-(trifluoromethyl)phenyl)-sulfonyl)-3,4-dihydro-2H-benzo[b][1,4]oxazin-2-yl)methyl)acetamide], on Gal4-RORγ-LBD (setting [1]), the EC50 was < 500 nM and the “Gal4-RORγ Assay Max Response” value was “** (The symbol “**” indicates a value in the range of greater than 90 to 150)”. For the same compound, at RORγ-LBD, the EC50 was < 500 nM and the “TR-FRET Assay Max Response” value is recorded as “**** (The symbol “****” indicates a value greater than 200)”.
In the case of `CC(C)(C[C@H]1CN(S(=O)(=O)c2cccc(C(F)(F)F)c2)c2cc(-c3cccc(F)c3Cl)ccc2O1)C(=O)O` [Compound 32H, (S)-3-(6-(2-chloro-3-fluorophenyl)-4-((3-(trifluoromethyl)phenyl)sulfonyl)-3,4-dihydro-2H-benzo[b][1,4]oxazin-2-yl)-2,2-dimethylpropanoic acid], on Gal4-RORγ-LBD (setting [1]), the EC50 lay within 500 to 5000 nM and the “Gal4-RORγ Assay Max Response” value is “** (The symbol “**” indicates a value in the range of greater than 90 to 150)”. Also, at RORγ-LBD, the EC50 is < 500 nM and the “TR-FRET Assay Max Response” value is reported as “**** (The symbol “****” indicates a value greater than 200)”.
As to `O=C(O)CC[C@H]1CN(S(=O)(=O)c2cccc(C(F)(F)F)c2)c2cc(-c3cc(F)cc(C(F)(F)F)c3)ccc2O1` [Compound 2AE, (S)-3-(6-(3-fluoro-5-(trifluoromethyl)phenyl)-4-((3-(trifluoromethyl)phenyl)-sulfonyl)-3,4-dihydro-2H-benzo[b][1,4]oxazin-2-yl)propanoic acid], on Gal4-RORγ-LBD (setting [1]), the EC50 is < 500 nM and the “Gal4-RORγ Assay Max Response” value is “*** (The symbol “***” indicates a value in the range of greater than 150 to 200)”. On RORγ-LBD, the EC50 is < 500 nM and the “TR-FRET Assay Max Response” value is given as “**** (The symbol “****” indicates a value greater than 200)”.
Consider `CC(C)(C[C@H]1CN(S(=O)(=O)c2cccc(C(F)(F)F)c2)c2cc(-c3c(F)ccc(F)c3F)ccc2O1)C(=O)O` [Compound 32BM, (S)-2,2-dimethyl-3-(4-((3-(trifluoromethyl)phenyl)sulfonyl)-6-(2,3,6-trifluorophenyl)-3,4-dihydro-2H-benzo[b][1,4]oxazin-2-yl)propanoic acid], for which, at Gal4-RORγ-LBD (2 μM ursolic acid), the EC50 is < 500 nM and the “Gal4-RORγ Assay Max Response” value is on record as “** (The symbol “**” indicates a value in the range of greater than 90 to 150)”. Also, at RORγ-LBD, the EC50 was < 500 nM and the “TR-FRET Assay Max Response” value is recorded as “*** (The symbol “***” indicates a value in the range of greater than 150 to 200)”.
For `O=C(O)CC[C@H]1CN(S(=O)(=O)c2cccc(C(F)(F)F)c2)c2cc(-c3cccc(C(F)(F)F)n3)ccc2O1` [Compound 4A, (S)-3-(4-((3-(trifluoromethyl)-phenyl)sulfonyl)-6-(6-(trifluoromethyl)pyridin-2-yl)-3,4-dihydro-2H-benzo[b][1,4]oxazin-2-yl)propanoic acid], on Gal4-RORγ-LBD (setting [1]), the EC50 is < 500 nM and the “Gal4-RORγ Assay Max Response” value is listed as “*** (The symbol “***” indicates a value in the range of greater than 150 to 200)”. In addition, on RORγ-LBD, the EC50 is < 500 nM and the “TR-FRET Assay Max Response” value is “*** (The symbol “***” indicates a value in the range of greater than 150 to 200)”.
On to `O=C(O)C1(C[C@H]2CN(S(=O)(=O)c3cccc(C(F)(F)F)c3)c3cc(-c4cc(F)cc(OC(F)F)c4)ccc3O2)CCOCC1` [Compound 58, (S)-4-((6-(3-(difluoromethoxy)-5-fluorophenyl)-4-((3-(trifluoromethyl)phenyl)sulfonyl)-3,4-dihydro-2H-benzo[b][1,4]oxazin-2-yl)methyl)tetrahydro-2H-pyran-4-carboxylic acid], for which, at Gal4-RORγ-LBD (2 μM ursolic acid), the concentration for a half-maximal effect (EC50) is < 500 nM and the “Gal4-RORγ Assay Max Response” value is “** (The symbol “**” indicates a value in the range of greater than 90 to 150)”. Also, on RORγ-LBD, the EC50 is < 500 nM and the “TR-FRET Assay Max Response” value was “*** (The symbol “***” indicates a value in the range of greater than 150 to 200)”.
For `CC1(C(=O)O)CC(C[C@H]2CN(S(=O)(=O)c3cccc(C(F)(F)F)c3)c3cc(-c4cccc(C(F)(F)F)n4)ccc3O2)C1` (stereo partly drawn) [Compound 60O, (1R,3s)-1-methyl-3-(((S)-4-((3-(trifluoromethyl)phenyl)-sulfonyl)-6-(6-(trifluoro-methyl)pyridin-2-yl)-3,4-dihydro-2H-benzo[b][1,4]-oxazin-2-yl)methyl)cyclobutane-1-carboxylic acid], on Gal4-RORγ-LBD (2 μM ursolic acid), the EC50 is < 500 nM and the “Gal4-RORγ Assay Max Response” value is recorded as “** (The symbol “**” indicates a value in the range of greater than 90 to 150)”. Moreover, on RORγ-LBD, the EC50 is < 500 nM and the “TR-FRET Assay Max Response” value was “*** (The symbol “***” indicates a value in the range of greater than 150 to 200)”.
On to `COc1cncc(-c2ccc3c(c2)N(S(=O)(=O)c2cccc(C(F)(F)F)c2)C[C@H](CCC(=O)O)O3)c1` [Compound 2V, (S)-3-(6-(5-methoxypyridin-3-yl)-4-((3-(trifluoromethyl)-phenyl)sulfonyl)-3,4-dihydro-2H-benzo[b][1,4]oxazin-2-yl)propanoic acid], for which, at Gal4-RORγ-LBD (setting [1]), the EC50 is < 500 nM and the “Gal4-RORγ Assay Max Response” value is on record as “** (The symbol “**” indicates a value in the range of greater than 90 to 150)”. Besides, at RORγ-LBD, the EC50 is < 500 nM and the “TR-FRET Assay Max Response” value is listed as “*** (The symbol “***” indicates a value in the range of greater than 150 to 200)”.
In the case of `COc1cccc(-c2ccc3c(c2)N(S(=O)(=O)c2cccc(C(F)(F)F)c2)C[C@H](CCC(=O)O)O3)n1` [Compound 4E, (S)-3-(6-(6-methoxypyridin-2-yl)-4-((3-(trifluoromethyl)-phenyl)sulfonyl)-3,4-dihydro-2H-benzo[b][1,4]oxazin-2-yl)propanoic acid], on Gal4-RORγ-LBD (setting [1]), the EC50 fell in the range of 500 to 5000 nM and the “Gal4-RORγ Assay Max Response” value is listed as “** (The symbol “**” indicates a value in the range of greater than 90 to 150)”. For the same compound, on RORγ-LBD, the EC50 was < 500 nM and the “TR-FRET Assay Max Response” value is listed as “**** (The symbol “****” indicates a value greater than 200)”.
